Calls of active or inactive are those of the source. The calls are words filed in the database; no cut-off is given here.
Key:
[1] = biological target: Histamine H2 receptor (Homo sapiens) (UniProt P25021); conditions: Compound concentration 10.0 uM
Activin receptor type-2A = Activin receptor type-2A (Homo sapiens, UniProt P27037); test: ACtR2(AC2ALGE1) Takeda global kinase panel
[2] = biological target: TRAF2 and NCK-interacting protein kinase (Homo sapiens, UniProt Q9UKE5); test: TNIK [ZC2(TNIKLGF1)] Takeda global kinase panel
[3] = biological target: Mitogen-activated protein kinase kinase kinase 13 (Homo sapiens, UniProt O43283); test: LZK(M313LGRJ) Takeda global kinase panel
[4] = biological target: Mitogen-activated protein kinase 1 (Homo sapiens, UniProt P28482); test: ERK2(MAP1LGY1) Takeda global kinase panel
[5] = biological target: Serine/threonine-protein kinase D2 (Homo sapiens, UniProt Q9BZL6); test: PKD2(PRD2LHY1) Takeda global kinase panel
[6] = biological target: Casein kinase II subunit alpha (Homo sapiens, UniProt P68400); test: CK2alpha1(C2A1LGF1) Takeda global kinase panel
[7] = biological target: Insulin-like growth factor 1 receptor (Homo sapiens, UniProt P08069); test: IGF1R(IGF1LGF1) Takeda global kinase panel
[8] = biological target: Endothelin receptor type B (Homo sapiens) (UniProt P24530); conditions: Compound concentration 10.0 uM
Activin receptor type-1 = Activin receptor type-1 (Homo sapiens, UniProt Q04771); test: ALK2(ACV1LGF1) Takeda global kinase panel
[9] = biological target: cAMP-dependent protein kinase catalytic subunit PRKX (Homo sapiens, UniProt P51817); test: PRKX(PRKXLGH5) Takeda global kinase panel
[10] = biological target: Serine/threonine-protein kinase TAO3 (Homo sapiens, UniProt Q9H2K8); test: TAO3(TAO3LGY1) Takeda global kinase panel
[11] = biological target: Endothelin-1 receptor (Homo sapiens) (UniProt P25101); conditions: Compound concentration 10.0 uM
Mus musculus = species: Mus musculus; test: Inhibition of Phorbol Ester at 10 µM in the Eurofins-Panlabs radioligand binding assay (Eurofins_assay_264500); design: ligand concentration 3 nM; conditions: Compound concentration 10.0 uM
[12] = biological target: 5-hydroxytryptamine receptor 6 (Homo sapiens) (UniProt P50406); conditions: Compound concentration 10.0 uM
[13] = biological target: Serine/threonine-protein kinase TAO2 (Homo sapiens, UniProt Q9UL54); test: TAO2(TAO2LGF1) Takeda global kinase panel
[14] = biological target: B1 bradykinin receptor (Homo sapiens) (UniProt P46663); conditions: Compound concentration 10.0 uM
[15] = biological target: Serine/threonine-protein kinase greatwall (Homo sapiens, UniProt Q96GX5); test: MASTL(MASLLGE1) Takeda global kinase panel
[16] = biological target: Tyrosine-protein kinase SYK (Homo sapiens, UniProt P43405); test: Syk(SYK1LHY1) Takeda global kinase panel
[17] = biological target: Protein-tyrosine kinase 6 (Homo sapiens, UniProt Q13882); test: Brk(PTK6LGY1) Takeda global kinase panel
[18] = biological target: Histamine H1 receptor (Homo sapiens) (UniProt P35367); conditions: Compound concentration 10.0 uM
[19] = biological target: Alpha-2A adrenergic receptor (Homo sapiens) (UniProt P08913); conditions: Compound concentration 10.0 uM
[20] = biological target: Calcium/calmodulin-dependent protein kinase type 1B (Homo sapiens, UniProt Q6P2M8); test: CaMK1beta(PNCKLGRI) Takeda global kinase panel
[21] = biological target: Microtubule-associated serine/threonine-protein kinase 4 (Homo sapiens, UniProt O15021); test: MAST4(MAS4LGRD) Takeda global kinase panel
[22] = biological target: STE20-like serine/threonine-protein kinase (Homo sapiens, UniProt Q9H2G2); test: SLK(SLK1LGRJ) Takeda global kinase panel
[23] = biological target: Protein kinase C zeta type (Homo sapiens, UniProt Q05513); test: PKCzeta(PRKZLGP1) Takeda global kinase panel
[24] = biological target: Serine/threonine-protein kinase RIO2 (Homo sapiens, UniProt Q9BVS4); test: RIOK2(RIO2LGF1) Takeda global kinase panel
[25] = biological target: Receptor-interacting serine/threonine-protein kinase 1 (Mus musculus, UniProt Q60855); test: TR-FRET (mouse RIPK1)
[26] = biological target: Dual specificity mitogen-activated protein kinase kinase 1 (Homo sapiens, UniProt Q02750); test: MEK1 [MAP2K1(M2K1LGF1)] Takeda global kinase panel
[27] = biological target: G protein-coupled receptor kinase 5 (Homo sapiens, UniProt P34947); test: GRK5(GRK5LGP1) Takeda global kinase panel
[28] = biological target: Delta-type opioid receptor (Homo sapiens) (UniProt P41143); conditions: Compound concentration 10.0 uM
[29] = biological target: Tyrosine-protein kinase FRK (Homo sapiens, UniProt P42685); test: FRK(FRK1LGF1) Takeda global kinase panel
[30] = biological target: Casein kinase II subunit alpha' (Homo sapiens, UniProt P19784); test: CK2alpha2(C2A2LGK1) Takeda global kinase panel
[31] = biological target: Mitogen-activated protein kinase kinase kinase kinase 4 (Homo sapiens, UniProt O95819); test: HGK [ZC1(M4K4CGP1)] Takeda global kinase panel
[32] = biological target: Rho-associated protein kinase 1 (Homo sapiens, UniProt Q13464); test: ROCK1(ROC1LGY1) Takeda global kinase panel
[33] = biological target: Neuropeptide Y receptor type 2 (Homo sapiens) (UniProt P49146); test: Inhibition of Neuropeptide Y Y2 at 10 µM in the Eurofins-Panlabs radioligand binding assay (Eurofins_assay_257110); conditions: Compound concentration 10.0 uM
[34] = biological target: Serine/threonine-protein kinase Chk1 (Homo sapiens, UniProt O14757); test: CHK1(CHE1CGP1) Takeda global kinase panel
[35] = biological target: Alpha-2C adrenergic receptor (Homo sapiens) (UniProt P18825); conditions: Compound concentration 10.0 uM
[36] = biological target: Protein kinase C beta type (Homo sapiens, UniProt P05771); test: PKCbeta(PRKBPHY3) Takeda global kinase panel
[37] = biological target: Microtubule-associated serine/threonine-protein kinase 3 (Homo sapiens, UniProt O60307); test: MAST3(MAS3LGE1) Takeda global kinase panel
[38] = biological target: Insulin receptor-related protein (Homo sapiens, UniProt P14616); test: IRR(INSSLGF1) Takeda global kinase panel
[39] = biological target: Mitogen-activated protein kinase 4 (Homo sapiens, UniProt P31152); test: ERK4(MAP4LGY1) Takeda global kinase panel
[40] = biological target: Myosin light chain kinase family member 4 (Homo sapiens, UniProt Q86YV6); test: SgK085(SG85LGY1) Takeda global kinase panel
[41] = biological target: Serine/threonine-protein kinase MARK2 (Homo sapiens, UniProt Q7KZI7); test: MARK2(MAR2LGY1) Takeda global kinase panel
[42] = biological target: NUAK family SNF1-like kinase 1 (Homo sapiens, UniProt O60285); test: NuaK1(NUA1LGF5) Takeda global kinase panel
[43] = biological target: Cyclin-dependent kinase 2 (Homo sapiens, UniProt P24941); test: CDK2(CDK2CGS1) Takeda global kinase panel

Sequence of Protein kinase C zeta type (Q05513 whole entry): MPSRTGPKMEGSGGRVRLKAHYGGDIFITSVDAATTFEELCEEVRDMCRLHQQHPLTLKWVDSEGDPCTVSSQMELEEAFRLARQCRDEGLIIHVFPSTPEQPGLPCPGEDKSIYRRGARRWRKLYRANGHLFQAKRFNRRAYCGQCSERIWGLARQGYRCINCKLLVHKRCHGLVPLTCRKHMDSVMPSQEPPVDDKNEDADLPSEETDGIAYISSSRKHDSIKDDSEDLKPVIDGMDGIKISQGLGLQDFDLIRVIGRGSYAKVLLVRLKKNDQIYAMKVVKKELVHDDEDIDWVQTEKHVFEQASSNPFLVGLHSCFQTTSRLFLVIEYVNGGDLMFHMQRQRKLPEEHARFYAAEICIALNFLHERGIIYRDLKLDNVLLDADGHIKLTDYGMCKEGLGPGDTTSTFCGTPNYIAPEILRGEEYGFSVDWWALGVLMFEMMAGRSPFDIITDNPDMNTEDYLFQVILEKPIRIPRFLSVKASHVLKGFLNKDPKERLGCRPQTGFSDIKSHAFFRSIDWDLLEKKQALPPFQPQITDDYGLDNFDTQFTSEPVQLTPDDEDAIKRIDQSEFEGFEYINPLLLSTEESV
Sequence of Serine/threonine-protein kinase RIO2 (Q9BVS4 whole entry): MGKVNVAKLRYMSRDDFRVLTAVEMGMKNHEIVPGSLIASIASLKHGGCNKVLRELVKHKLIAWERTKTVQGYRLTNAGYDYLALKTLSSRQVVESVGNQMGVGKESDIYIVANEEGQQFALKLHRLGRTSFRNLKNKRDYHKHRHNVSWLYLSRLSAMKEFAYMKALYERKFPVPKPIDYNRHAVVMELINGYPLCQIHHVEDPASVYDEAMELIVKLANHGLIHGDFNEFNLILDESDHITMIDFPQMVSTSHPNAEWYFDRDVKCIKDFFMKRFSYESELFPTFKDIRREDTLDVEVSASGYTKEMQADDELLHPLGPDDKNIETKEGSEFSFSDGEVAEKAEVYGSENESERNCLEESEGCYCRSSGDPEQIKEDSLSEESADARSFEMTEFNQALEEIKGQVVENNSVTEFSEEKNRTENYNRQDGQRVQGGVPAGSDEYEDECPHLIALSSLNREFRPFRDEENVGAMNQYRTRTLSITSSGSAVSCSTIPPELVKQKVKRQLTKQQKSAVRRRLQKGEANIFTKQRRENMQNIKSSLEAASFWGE
Sequence of Receptor-interacting serine/threonine-protein kinase 1 (Q60855 whole entry): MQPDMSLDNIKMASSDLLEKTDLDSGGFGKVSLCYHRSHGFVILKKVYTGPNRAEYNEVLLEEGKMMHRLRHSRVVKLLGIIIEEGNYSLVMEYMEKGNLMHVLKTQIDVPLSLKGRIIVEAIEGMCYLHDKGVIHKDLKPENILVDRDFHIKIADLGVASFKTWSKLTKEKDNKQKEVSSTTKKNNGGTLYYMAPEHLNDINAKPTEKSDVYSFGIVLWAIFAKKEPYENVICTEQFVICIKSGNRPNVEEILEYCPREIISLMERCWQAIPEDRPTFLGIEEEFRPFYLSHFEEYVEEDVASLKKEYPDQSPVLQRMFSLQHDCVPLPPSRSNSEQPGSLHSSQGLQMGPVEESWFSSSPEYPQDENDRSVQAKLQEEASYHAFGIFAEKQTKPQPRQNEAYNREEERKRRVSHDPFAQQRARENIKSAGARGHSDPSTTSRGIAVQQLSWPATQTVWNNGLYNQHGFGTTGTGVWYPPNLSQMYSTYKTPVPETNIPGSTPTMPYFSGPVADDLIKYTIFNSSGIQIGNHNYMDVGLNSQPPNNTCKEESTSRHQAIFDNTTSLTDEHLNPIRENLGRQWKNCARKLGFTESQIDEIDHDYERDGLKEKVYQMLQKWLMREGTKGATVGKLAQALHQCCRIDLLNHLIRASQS
Sequence of cAMP-dependent protein kinase catalytic subunit PRKX (P51817 whole entry): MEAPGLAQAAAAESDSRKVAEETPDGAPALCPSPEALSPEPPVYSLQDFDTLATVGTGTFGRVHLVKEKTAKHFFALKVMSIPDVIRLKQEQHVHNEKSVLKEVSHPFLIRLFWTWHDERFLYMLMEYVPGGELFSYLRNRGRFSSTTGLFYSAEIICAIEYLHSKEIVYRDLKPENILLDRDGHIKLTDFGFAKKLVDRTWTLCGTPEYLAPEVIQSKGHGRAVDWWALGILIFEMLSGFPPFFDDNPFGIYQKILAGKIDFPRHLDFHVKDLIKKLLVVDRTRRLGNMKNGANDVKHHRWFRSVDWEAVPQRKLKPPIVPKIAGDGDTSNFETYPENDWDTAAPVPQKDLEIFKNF
Sequence of Tyrosine-protein kinase FRK (P42685 whole entry): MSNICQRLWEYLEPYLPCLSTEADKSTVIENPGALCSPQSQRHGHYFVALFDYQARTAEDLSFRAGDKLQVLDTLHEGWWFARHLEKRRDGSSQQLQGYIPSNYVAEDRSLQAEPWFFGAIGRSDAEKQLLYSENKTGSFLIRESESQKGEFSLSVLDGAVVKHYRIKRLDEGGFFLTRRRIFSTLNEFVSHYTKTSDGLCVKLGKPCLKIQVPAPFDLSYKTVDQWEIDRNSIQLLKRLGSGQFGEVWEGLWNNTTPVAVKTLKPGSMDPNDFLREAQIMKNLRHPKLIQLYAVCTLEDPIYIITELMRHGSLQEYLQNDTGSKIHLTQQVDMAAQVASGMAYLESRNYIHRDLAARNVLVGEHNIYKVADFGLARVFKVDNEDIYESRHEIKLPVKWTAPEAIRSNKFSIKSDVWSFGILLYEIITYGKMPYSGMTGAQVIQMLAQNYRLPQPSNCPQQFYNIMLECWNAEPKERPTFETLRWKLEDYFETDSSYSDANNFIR
Sequence of Serine/threonine-protein kinase TAO2 (Q9UL54 whole entry): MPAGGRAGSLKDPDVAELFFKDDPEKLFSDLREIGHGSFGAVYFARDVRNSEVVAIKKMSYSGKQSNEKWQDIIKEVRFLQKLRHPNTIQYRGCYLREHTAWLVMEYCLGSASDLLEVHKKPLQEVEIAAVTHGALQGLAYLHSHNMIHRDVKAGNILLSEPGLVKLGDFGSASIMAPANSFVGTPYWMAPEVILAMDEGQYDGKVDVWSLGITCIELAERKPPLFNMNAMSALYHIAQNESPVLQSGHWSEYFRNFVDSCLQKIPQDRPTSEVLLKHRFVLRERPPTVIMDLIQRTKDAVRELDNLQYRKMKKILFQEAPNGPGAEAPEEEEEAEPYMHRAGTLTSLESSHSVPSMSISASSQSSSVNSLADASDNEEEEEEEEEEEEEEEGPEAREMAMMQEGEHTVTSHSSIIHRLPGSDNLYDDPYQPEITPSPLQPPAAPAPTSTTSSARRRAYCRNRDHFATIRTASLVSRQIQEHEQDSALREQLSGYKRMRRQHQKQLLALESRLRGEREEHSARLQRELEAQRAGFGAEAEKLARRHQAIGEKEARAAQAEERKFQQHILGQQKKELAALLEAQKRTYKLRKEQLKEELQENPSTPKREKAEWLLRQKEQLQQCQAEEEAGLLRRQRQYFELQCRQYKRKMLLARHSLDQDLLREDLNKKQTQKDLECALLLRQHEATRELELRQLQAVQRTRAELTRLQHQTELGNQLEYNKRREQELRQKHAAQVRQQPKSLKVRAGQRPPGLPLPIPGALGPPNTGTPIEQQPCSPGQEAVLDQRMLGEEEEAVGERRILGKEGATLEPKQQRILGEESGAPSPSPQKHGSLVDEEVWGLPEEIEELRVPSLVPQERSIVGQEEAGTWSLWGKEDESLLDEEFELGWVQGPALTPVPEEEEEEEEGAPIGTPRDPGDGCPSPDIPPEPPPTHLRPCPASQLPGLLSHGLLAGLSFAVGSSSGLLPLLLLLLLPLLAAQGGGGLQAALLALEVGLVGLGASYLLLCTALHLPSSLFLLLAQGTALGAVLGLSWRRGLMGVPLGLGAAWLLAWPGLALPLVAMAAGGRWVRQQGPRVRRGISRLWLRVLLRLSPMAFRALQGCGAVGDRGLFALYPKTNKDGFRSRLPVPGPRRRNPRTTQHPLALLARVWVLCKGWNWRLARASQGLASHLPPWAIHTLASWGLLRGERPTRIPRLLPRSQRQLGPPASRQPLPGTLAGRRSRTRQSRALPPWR
Sequence of Mitogen-activated protein kinase 4 (P31152 whole entry): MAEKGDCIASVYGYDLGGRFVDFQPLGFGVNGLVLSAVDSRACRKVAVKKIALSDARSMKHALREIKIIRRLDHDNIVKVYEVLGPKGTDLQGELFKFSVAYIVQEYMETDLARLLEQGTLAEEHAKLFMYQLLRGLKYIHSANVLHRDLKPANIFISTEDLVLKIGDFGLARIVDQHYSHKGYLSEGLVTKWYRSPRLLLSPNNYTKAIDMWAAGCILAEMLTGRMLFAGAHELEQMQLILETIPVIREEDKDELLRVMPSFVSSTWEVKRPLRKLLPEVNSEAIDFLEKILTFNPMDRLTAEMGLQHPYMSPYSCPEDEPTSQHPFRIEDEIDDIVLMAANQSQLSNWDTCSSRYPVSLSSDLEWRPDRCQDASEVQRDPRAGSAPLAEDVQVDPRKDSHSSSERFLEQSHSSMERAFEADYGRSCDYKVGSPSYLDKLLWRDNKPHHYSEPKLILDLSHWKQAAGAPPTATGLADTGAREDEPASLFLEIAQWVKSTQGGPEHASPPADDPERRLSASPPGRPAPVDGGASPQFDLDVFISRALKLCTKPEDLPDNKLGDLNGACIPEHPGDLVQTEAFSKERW
Sequence of Delta-type opioid receptor (Homo sapiens) (P41143 whole entry): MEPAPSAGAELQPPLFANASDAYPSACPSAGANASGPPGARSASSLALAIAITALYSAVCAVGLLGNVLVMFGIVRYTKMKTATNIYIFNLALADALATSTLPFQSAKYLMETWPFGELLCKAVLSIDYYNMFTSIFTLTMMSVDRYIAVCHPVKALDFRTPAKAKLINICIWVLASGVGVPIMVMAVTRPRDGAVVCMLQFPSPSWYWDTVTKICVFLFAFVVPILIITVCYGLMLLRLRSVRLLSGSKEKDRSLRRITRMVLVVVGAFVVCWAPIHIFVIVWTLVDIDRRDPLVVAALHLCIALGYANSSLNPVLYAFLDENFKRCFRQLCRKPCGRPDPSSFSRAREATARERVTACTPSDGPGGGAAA

Work on `CN1C(=O)[C@@H](N2CCc3c(nn(Cc4ccccc4)c3Br)C2=O)COc2ccccc21` [TP-030-2] yielded an inhibition [1] of 0.52%, an IC50 (Activin receptor type-2A) of 1000 nM and an IC50 [2] of 1000 nM. For the same compound, the IC50 [3] was 1000 nM, the IC50 [4] was 1000 nM and the IC50 [5] was 1000 nM. For the same compound, the IC50 [6] was 1000 nM, the IC50 [7] was 1000 nM and the inhibition [8] was -7%. The IC50 (Activin receptor type-1) was 1000 nM, the IC50 [9] was 1000 nM and the IC50 [10] was 1000 nM. For the same compound, the inhibition [11] was -3%, the inhibition (Mus musculus) was 7% and the inhibition [12] was 8.15%. It also gave an IC50 [13] of 1000 nM, an inhibition [14] of 1% and an IC50 [15] of 1000 nM. It also gave an IC50 [16] of 1000 nM, an IC50 [17] of 1000 nM and an inhibition [18] of 9%. The inhibition [19] was 43%, the IC50 [20] was 1000 nM and the IC50 [21] was 1000 nM. For the same compound, the IC50 [22] was 1000 nM, the IC50 [23] was 1000 nM and the IC50 [24] was 1000 nM. The IC50 [25] was 100 nM (active), the IC50 [26] was 1000 nM and the IC50 [27] was 1000 nM. For the same compound, the inhibition [28] was 8%, the IC50 [29] was 1000 nM and the IC50 [30] was 1000 nM. For the same compound, the IC50 [31] was 1000 nM, the IC50 [32] was 1000 nM and the inhibition [33] was -6%. The IC50 [34] was 1000 nM, the inhibition [35] was 71.3% and the IC50 [36] was 1000 nM. The IC50 [37] was 1000 nM, the IC50 [38] was 1000 nM and the IC50 [39] was 1000 nM. The IC50 [40] was 1000 nM, the IC50 [41] was 1000 nM and the IC50 [42] was 1000 nM. For the same compound, the IC50 [43] was 1000 nM.
